Measurements as given in US11083197B2, “Herbicidal composition comprising chromone derivatives and a method for weed control” (INVESTIGACIONES BIOLÓGICAS EN AGROQUÍMICOS ROSARIO S.A., priority 2015, dated 2021).
Where two headings read alike, the source gives them in different places.

Tests used:
[1] = tested on: duckweed (Lemna paucicostata); assay: Dose-response bioassay with duckweed; type: in vivo; conditions: frond area increase between days 1 and 7, read-out: IC50 (μM) ± SE, duckweed growth inhibition
Description: Phytotoxic activity of compounds of formula III and IV above as evaluated on duckweed. Duckweed stocks were grown from a single colony consisting of a mother and two daughter fronds in a beaker on modified Hoagland media (Table 3 below). The medium was adjusted to pH 5.5 with 1 M NaOH and filtered through a 0.2 μm filter. Each well of non-pyrogenic polystyrene sterile 6-well plates was filled with 4.950 ml of Hoagland media and, 50 μl of distilled water, 50 μl of acetone in solvent control or 50 μl of acetone containing the appropriate concentration of test compound. The final concentration of acetone was 1% v/v. Two, three-frond colonies from 4 to 5 d-old stock cultures were placed in each well. Plates were placed in an incubator with white light (94.2 μE m^−2 s^−1). Total frond area per well was recorded by the Scanalyzer (LemnaTec, Germany) image analysis system from days 0 to 7. Percentage of increase between days 1 and 7 was determined relative to baseline area at day zero.
Percentage of increase between days 1 and 7 was determined relative to baseline area at day zero. Data represents means of three replicates±SD.
(§1) Statistical Analysis. Data from dose-response experiments were analyzed by a log-logistic model^37-38 using the dose-response curve module^39 of R software version 2.2.1.^40 Concentrations required for 50% germination or growth inhibition relative to control (IC50 values) were obtained from estimated parameters in the regression curves. The standard error (SE) of each estimation is provided. Data from phytotoxicity bioassays in the laboratory and greenhouse, ROS and cell death quantifications were analyzed by ANOVA using the InfoStat statistical software version 2015,^41 and Scheffe's test was employed to compare the means at α=0.05.

[2] = tested on: ryegrass (Lolium multiflorum); assay: Dose-response bioassay with ryegrass; type: in vivo; conditions: 168 h, 7 days
Description: (§2) A filter paper and 5 lettuce or 10 mg of creeping bentgrass seeds were placed in each well of a 24-well plate. Stock solutions (10×) of test compounds were prepared in acetone. 180 μl of distilled water were added to each well together with 20 μl of stock solution or acetone in solvent control. Final concentration of acetone was 10% v/v. Plates were sealed with Parafilm, and incubated at 26° C. in a growth chamber set at 173 μmol m^−2 s^−1 continuous photosynthetically active radiation. Phytotoxic activity was qualitatively evaluated by visually comparing germination in each well with solvent control at 7 days. A qualitative estimation of phytotoxicity was obtained by using a rating scale of 0 to 5, where 0 was no effect, and 5 was no germination of seeds. This procedure was also used for testing the phytotoxicity of pure compounds on ryegrass. On this experiment 12-well plates were used. 10 seeds were placed per well and final volume was 300 μl in each one. During dose-response bioassays used for IC50 determination, germination percentage and length of plants were measured at 7 days in order to determine the concentration required for 50% germination and growth inhibition (IC50). All experiments were done in triplicate.
(§3) Using method described in Example 1, compounds of Formula III and IV above were tested against lettuce and ryegrass.
(§4) The percentage of germination and length of plants were determined at 7 days. Data represents means of three replicates±SD. The IC50 values, for both germination and growth inhibition by compounds III and IV on lettuce and ryegrass, were obtained from estimated parameters in the regression curves.
as §1

[3] = tested on: creeping bentgrass (A. stolonifera); assay: Germination bioassay with creeping bentgrass; type: in vivo, Agrostis stolonifera; parameters: key to Phytotoxicity at day 7, Creeping bentgrass: 0 = no effect; 5 = no growth or germination; conditions: for Phytotoxicity at day 7, Creeping bentgrass: 1 mM, 24-well plates, rating scale of 0 to 5; for inhibition at 1000 µg/mL: Agrostis stolonifera, 168 h, creeping bentgrass, 1 mg/mL, day 7; for creeping bentgrass germination: fractions at 1 mg/mL
Description: (§5) DCM extract of flowers of A. visnaga (1.6 g) was divided in two 800 mg halves and each one was subjected to column chromatography using an Isolera One system (Biotage), equipped with UV detector (302 and 365 nm) and automatic fraction collector. Separation was performed by normal-phase chromatography column using a SNAP Cartridge KP-Sil (37×157 mm, 50 μm irregular silica, 100 g, Biotage) and a pre-packaged SNAP Samplet Cartridge KP-Sil (37×17 mm, Biotage). A full gradient of hexane:ethyl acetate was used for elution, from 100:0 to 0:100 over 3000 ml. Flow was 40 ml/min and 25 ml fractions were collected. Equal fractions were combined based on similarities on their TLC and chromatogram profiles providing nineteen fractions named I to XIX. All fractions were evaluated for their phytotoxicity on germination bioassay of lettuce (L. sativa) and creeping bentgrass (A. stolonifera).
as §2

[4] = tested on: crabgrass (D. sanguinalis) and velvetleaf (A. theophrasti); assay: Greenhouse postemergence spray, 2.0 kg ai/ha; type: in vivo, Digitaria sanguinalis; Abutilon theophrasti; conditions: for symptoms on leaves after post-emergence spray: 6-8-day-old plants, both weed species
Description: Aqueous solutions containing commercial standards of pure compounds of formulas III and IV were prepared and sprayed on crabgrass (D. sanguinalis) and velvetleaf (A. theophrasti). For better dissolution of compounds in water Tween 20 (1% v/v) and acetone (1% v/v) were added to spray solution. For postemergence application 6-8-day-old plants were sprayed, and final rate of compounds was 2.0 kg active ingredient (ai) ha^−1. Plant height and dry weight were measured at 11 days after spray. Results were compared with atrazine at 1.0 kg ai ha^−1.

[5] = tested on: ryegrass, barnyardgrass, crabgrass, foxtail, millet, morningglory and velvetleaf; assay: Pre-emergence bioassay in Petri dishes against different weeds; type: in vivo; conditions: 0.5 and 1.0 mM
Description: Compounds of Formulas III and IV above were tested in a pre-emergence bioassay (in Petri dishes) against different weeds at 0.5 and 1.0 mM. The seeds of different weeds were placed in Petri dishes with a filter paper and 4 mL of an aqueous solution of each compound or commercial herbicide.
Plant length was measured at 7 days of incubation.

lettuce (Lactuca sativa) = assay: Germination / dose-response bioassay with lettuce; type: in vivo; conditions: for Phytotoxicity at day 7, Lettuce: 1 mM, 24-well plates, rating scale of 0 to 5; for IC50 / inhibition at 1000 µg/mL: lettuce; for IC50: 7 days; for inhibition at 1000 µg/mL: 1 mg/mL, day 7; for lettuce germination: fractions at 1 mg/mL
Description: as §5, §2, §3, §4, §1

[6] = read-out: IC50(μM) ± SE to inhibit germination
[7] = read-out: IC50(μM) ± SE to inhibit growth
[8] = Lactuca sativa, 168 h, read-out: IC50(μM) ± SE to inhibit germination
[9] = Lactuca sativa, 168 h, read-out: IC50(μM) ± SE to inhibit growth

Row | IC50 (lettuce (Lactuca sativa); [6]) [µM] | Compound | IC50 ([1]; Lemna aequinoctialis) [µM] | IC50 [1] [µM] | IC50 [2, 6] [µM] | IC50 [2, 7] [µM] | Phytotoxicity at day 7, Creeping bentgrass [3] | inhibition at 1000 µg/mL [3] [%] | creeping bentgrass germination [3] | symptoms on leaves after post-emergence spray [4] | plant size and biomass respect solvent control ([4]; 11 days after spray) | effect on growth and germination of different weeds [5] | Phytotoxicity at day 7, Lettuce (lettuce (Lactuca sativa)) | IC50 (lettuce (Lactuca sativa); [8]) [µM] | IC50 (lettuce (Lactuca sativa); [9]) [µM] | inhibition at 1000 µg/mL (lettuce (Lactuca sativa); Lactuca sativa, 168 h) [%] | lettuce germination (lettuce (Lactuca sativa)) | IC50 (lettuce (Lactuca sativa); [7]) [µM]
1 |  | COc1c2ccoc2cc2oc(C)cc(=O)c12 [Formula IV, 4-methoxy-7-methyl-5H-furo[3,2-g]chromen-5-one] | 120 | 122 ± 28 | 502 ± 115 | 214 ± 23 | 5 | 100 | completely inhibited | Necrosis symptoms | significant reduction of plant size and biomass | strongly interfered | 3 | 740 | 170 | 100 | completely inhibited | 175 ± 16
2 | 701 ± 93 | COc1c2occc2c(OC)c2c(=O)cc(C)oc12 [Formula III, 4,9-dimethoxy-7-methyl-5H-furo[3,2-g]chromen-5-one] | 160 | 162 ± 29 | 637 ± 112 | 244 ± 37 | 5 | 100 | completely inhibited | Necrosis symptoms |  | strongly interfered | 3 | 700 | 110 | 100 | completely inhibited | 
